The values below are quoted from earlier work in patent publication US6482832B1, “Heterocyclically substituted amides, their production and their use” (Abbott Laboratories, priority 1998, dated 2002).

Like-named read-outs stand apart in the source and are kept apart here.

One data set relates to cells. The conditions noted are these: surmount the cell membrane only with difficulty.
Data set [1] relates to calpain-mediated cleavage of pp60src in platelets. The conditions noted are these: activated platelets; Oda et al., J. Biol. Chem. 1993.

For the compound `CC(C)C[C@H](NC(=O)[C@H]1O[C@@H]1C(=O)O)C(=O)NCCCCN=C(N)N` [E 64], in the data set with calpain (known calpain inhibitors), the calpain inhibition entry is reported as “good calpain inhibitors”. Further, the effect on cells result in the data set with cells is “poor effect on cells”. Consider `CCCC[C@@H](C=O)NC(=O)[C@H](CC(C)C)NC(=O)OCc1ccccc1` [calpeptin], for which the “cleavage of pp60src” value in data set [1] is “can prevent the cleavage of pp60src”. On to `CC(=O)N[C@@H](CC(C)C)C(=O)N[C@@H](CC(C)C)C(=O)N[C@H](C=O)CCCNC(=N)N` [leupeptin], for which the calpain inhibition entry with calpain (known calpain inhibitors) was “good calpain inhibitors”. In addition, the effect on cells result in the data set on cells is “poor effect on cells”. As to Ph—CONH—CH(CH2Ph)—CO—COCOOCH3, in the data set with calpain (M. R. Angelastro et al., J. Med. Chem. 1990, 33, 11-13), the calpain inhibition entry is “only a weak calpain inhibitor”.
